Measurements from the NIST ThermoML archive (doi:10.1016/j.jct.2009.08.018).
± gives the expanded uncertainty stated by the source.

Assay: xn = mol fraction of the nth substance listed
Conditions: Liquid, Static

CCCCCC[n+]1ccn(C)c1.O=S(=O)([N-]S(=O)(=O)C(F)(F)F)C(F)(F)F + O=C=O
Conditions | molar volume [m3/mol]
298.15 K, 2015 kPa, x2 = 0.396 | 0.0002205 ± 1.4e-07
298.15 K, 3586 kPa, x2 = 0.592 | 0.000163 ± 9e-08
298.15 K, 6489 kPa, x2 = 0.762 | 0.0001127 ± 8e-08
298.15 K, 8967 kPa, x2 = 0.8 | 9.883e-05 ± 4e-08
298.15 K, 10321 kPa, x2 = 0.81 | 9.556e-05 ± 4e-08
298.15 K, 11969 kPa, x2 = 0.819 | 9.198e-05 ± 4e-08
298.15 K, 13525 kPa, x2 = 0.822 | 9.084e-05 ± 4e-08
298.15 K, 14804 kPa, x2 = 0.823 | 9.095e-05 ± 4e-08
323.15 K, 800 kPa, x2 = 0.139 | 0.0003082 ± 1.9e-07
323.15 K, 3716 kPa, x2 = 0.487 | 0.0002013 ± 1e-07
323.15 K, 5430 kPa, x2 = 0.583 | 0.0001725 ± 8e-08
323.15 K, 6560 kPa, x2 = 0.637 | 0.0001568 ± 8e-08
323.15 K, 8039 kPa, x2 = 0.692 | 0.0001395 ± 6e-08
323.15 K, 9078 kPa, x2 = 0.726 | 0.0001282 ± 6e-08
323.15 K, 9969 kPa, x2 = 0.751 | 0.000118 ± 6e-08
323.15 K, 11081 kPa, x2 = 0.769 | 0.0001108 ± 4e-08
323.15 K, 12224 kPa, x2 = 0.774 | 0.0001094 ± 4e-08
323.15 K, 12959 kPa, x2 = 0.779 | 0.0001079 ± 4e-08
343.15 K, 1793 kPa, x2 = 0.14 | 0.0003081 ± 1.8e-07
343.15 K, 2754 kPa, x2 = 0.239 | 0.0002782 ± 1.4e-07
343.15 K, 5537 kPa, x2 = 0.436 | 0.0002194 ± 1.2e-07
343.15 K, 8861 kPa, x2 = 0.596 | 0.0001701 ± 8e-08
343.15 K, 11560 kPa, x2 = 0.673 | 0.0001447 ± 6e-08
343.15 K, 14469 kPa, x2 = 0.721 | 0.0001282 ± 6e-08
343.15 K, 19818 kPa, x2 = 0.755 | 0.0001169 ± 4e-08
343.15 K, 24708 kPa, x2 = 0.771 | 0.0001115 ± 4e-08

CCn1cc[n+](C)c1.O=S(=O)([N-]S(=O)(=O)C(F)(F)F)C(F)(F)F + O=C=O
Conditions | molar volume [m3/mol]
298.15 K, 1235 kPa, x2 = 0.28 | 0.000204 ± 1.3e-07
298.15 K, 3254 kPa, x2 = 0.533 | 0.0001415 ± 1e-07
298.15 K, 6471 kPa, x2 = 0.747 | 9.622e-05 ± 4e-08
298.15 K, 10194 kPa, x2 = 0.767 | 9.034e-05 ± 5e-08
298.15 K, 11608 kPa, x2 = 0.777 | 8.747e-05 ± 5e-08
298.15 K, 13084 kPa, x2 = 0.781 | 8.646e-05 ± 5e-08
298.15 K, 14794 kPa, x2 = 0.782 | 8.625e-05 ± 5e-08
323.15 K, 2005 kPa, x2 = 0.302 | 0.0002021 ± 1.4e-07
323.15 K, 4250 kPa, x2 = 0.483 | 0.0001607 ± 1e-07
323.15 K, 6213 kPa, x2 = 0.587 | 0.0001367 ± 8e-08
323.15 K, 8156 kPa, x2 = 0.657 | 0.0001197 ± 6e-08
323.15 K, 10081 kPa, x2 = 0.711 | 0.0001049 ± 6e-08
323.15 K, 12307 kPa, x2 = 0.743 | 9.597e-05 ± 4e-08
323.15 K, 14625 kPa, x2 = 0.749 | 9.492e-05 ± 4e-08
343.15 K, 2182 kPa, x2 = 0.247 | 0.0002186 ± 1.4e-07
343.15 K, 4070 kPa, x2 = 0.416 | 0.0001777 ± 1e-07
343.15 K, 6063 kPa, x2 = 0.509 | 0.0001559 ± 8e-08
343.15 K, 7999 kPa, x2 = 0.579 | 0.0001394 ± 8e-08
343.15 K, 9938 kPa, x2 = 0.636 | 0.0001249 ± 6e-08
343.15 K, 12143 kPa, x2 = 0.684 | 0.0001117 ± 6e-08
343.15 K, 14682 kPa, x2 = 0.709 | 0.0001056 ± 4e-08

CCCCCCCCCCn1cc[n+](C)c1.O=S(=O)([N-]S(=O)(=O)C(F)(F)F)C(F)(F)F + O=C=O
Conditions | molar volume [m3/mol]
298.15 K, 1474 kPa, x2 = 0.35 | 0.0002775 ± 2.3e-07
298.15 K, 2828 kPa, x2 = 0.562 | 0.0001997 ± 1.5e-07
298.15 K, 4516 kPa, x2 = 0.709 | 0.000147 ± 8e-08
298.15 K, 6799 kPa, x2 = 0.81 | 0.0001111 ± 7e-08
298.15 K, 8659 kPa, x2 = 0.83 | 0.0001006 ± 6e-08
298.15 K, 10909 kPa, x2 = 0.841 | 9.556e-05 ± 4e-08
298.15 K, 12873 kPa, x2 = 0.848 | 9.235e-05 ± 4e-08
298.15 K, 14847 kPa, x2 = 0.849 | 9.169e-05 ± 4e-08
323.15 K, 1439 kPa, x2 = 0.257 | 0.0003212 ± 1.8e-07
323.15 K, 3371 kPa, x2 = 0.489 | 0.0002347 ± 1.2e-07
323.15 K, 6891 kPa, x2 = 0.696 | 0.0001569 ± 1e-07
323.15 K, 8581 kPa, x2 = 0.752 | 0.0001354 ± 6e-08
323.15 K, 10917 kPa, x2 = 0.8 | 0.0001145 ± 4e-08
323.15 K, 13030 kPa, x2 = 0.814 | 0.0001086 ± 4e-08
323.15 K, 14596 kPa, x2 = 0.819 | 0.0001071 ± 4e-08
343.15 K, 2003 kPa, x2 = 0.302 | 0.0003089 ± 2.2e-07
343.15 K, 3941 kPa, x2 = 0.475 | 0.0002428 ± 1.6e-07
343.15 K, 6242 kPa, x2 = 0.587 | 0.0002017 ± 1.2e-07
343.15 K, 8674 kPa, x2 = 0.683 | 0.000164 ± 1e-07
343.15 K, 10773 kPa, x2 = 0.744 | 0.0001384 ± 8e-08
343.15 K, 12515 kPa, x2 = 0.776 | 0.0001249 ± 6e-08
343.15 K, 14534 kPa, x2 = 0.801 | 0.000113 ± 6e-08
